According to patent US20020052361A1, “Pharmaceutical compositions and method for the treatment of hypertension” (priority 1999, published 2002):

Experiments:
Type in all cases: in vivo, Sprague-Dawley rats
chronically hypoxic rats [1] = experiment: Haemodynamic tests: pulmonary artery pressure in rats kept 14 days under normoxic or hypoxic conditions; conditions: for PAP (pulmonary artery pressure): rats, 40 mg/kg/day for 14 days via i.p. osmotic mini-pump, mean ± SD
Description: (§1) The test substance employed was (3S,2R′)-3-[1-(2′-(carboxy-4′-phenylbutyl)cyclopentane-1-carbonylamino]-2,3,4,5-tetrahydro-2-oxo-1H-1-benzazepine-1-acetic acid, which is representative of the substances of formula I which can be used in the invention. The dose of the substance administered was 40 mg/kg per day (sufficient to suppress the pressure feedback on big endothelin).
(§2) The test animals used were Sprague-Dawley rats (260 to 310 g; n=6 to 10 per test group). In order to produce pulmonary hypertension, the animals were exposed to […] hypoxic conditions in a pressure chamber. For comparison, one control group was kept under normal air and another control group under hypoxic conditions.
(§3) The animals were treated with the active substance or a vehicle by means of osmotic mini-pumps. The osmotic mini-pumps had been implanted intraperitoneally in the animals before they were kept in a pressure chamber 24 h later for a period of two weeks. There the animals were kept at normal pressure either under hypoxic conditions (10% O2) or in normal air. After two weeks the animals were prepared for the haemodynamic tests and the measurements were carried out.
The animals were anaesthetised, then a ready-made cannula was inserted into the pulmonary artery in a conventional manner via the right jugular vein, atrium and ventricle. A catheter was inserted into the left jugular vein in order to allow intravenous administration of active substances. The left carotid artery was also fitted with a cannula for the purpose of measuring systemic blood pressure. Once the animals were conscious, pulmonary artery pressure (PAP) was recorded. The rats were then exposed to hypoxic conditions (10% O2) again for 10 minutes in a mini-chamber and the increase in pulmonary artery pressure was measured and also recorded. The effects of the test substance on PAP under normotoxic and hypoxic conditions are presented in Table 1 in comparison with the control tests. The given data are means±standard deviations and were statistically analysed by means of ANOVA.

chronically hypoxic rats [2] = experiment: Measurement of the antihypertrophic effect: right and left ventricular weights; conditions: for Rt/LtHWt (ratio of right to left ventricular weight) / RtHWt (right ventricular weight) / RtHWt/BW (ratio of right ventricular weight to body weight): rats, 40 mg/kg/day for 14 days, mean ± SD
Description: as §1, §2, §3
After completion of the haemodynamic tests, the animals were sacrificed and their hearts were dissected out. The weights of the right and left ventricles were determined and calculated in relation to bodyweight. The effects of the test substance on the heart weights under normotoxic and hypoxic conditions are presented in Table 1 in comparison with the control tests. The given data are means±standard deviations and were statistically analysed by means of ANOVA.

chronically hypoxic rats [3] = experiment: Effect on pulmonary artery remodelling: muscularisation of distal pulmonary vessels (histology, van Gieson staining)
Description: as §1, §2, §3
After the rats had been sacrificed, the lungs as well as the hearts were isolated. The lungs underwent histological examination, i.e. the degree of muscularisation of the distal pulmonary vessels was determined after “van Gieson” staining, by microscopy at 400× magnification. The effects of the test substance on pulmonary artery remodelling (i.e. on muscularisation of the distal pulmonary vessels) during two weeks' hypoxia are presented in Table 2 in comparison with the hypoxic control tests. The given data are means±standard deviations and were statistically analysed by means of ANOVA.

chronically hypoxic rats [4] = experiment: Haemodynamic tests: systemic blood pressure via carotid artery cannula; conditions: 40 mg/kg per day, result in words
Description: as §1, §2
The animals were treated with the active substance or a vehicle by means of osmotic mini-pumps. […]
The animals were anaesthetised, then a ready-made cannula was inserted into the pulmonary artery in a conventional manner via the right jugular vein, atrium and ventricle. […] Once the animals were conscious, pulmonary artery pressure (PAP) was recorded. The rats were then exposed to hypoxic conditions (10% O2) again for 10 minutes in a mini-chamber and the increase in pulmonary artery pressure was measured and also recorded. […] The given data are means±standard deviations and were statistically analysed by means of ANOVA.

[5] = hypoxic rats, 40 mg/kg per day, result in words
[6] = rats, 14 days' hypoxia, 40 mg/kg/day for 14 days, mean ± SD, n = 8

SMILES: O=C(O)CN1C(=O)[C@@H](NC(=O)C2(C[C@@H](CCc3ccccc3)C(=O)O)CCCC2)CCc2ccccc21 [Test substance]
- Effect on pulmonary artery pressure (PAP) in comparison with hypoxic control animals (chronically hypoxic rats [1]; [5]): statistically significant decrease
- PAP (pulmonary artery pressure) (chronically hypoxic rats [1]; 14-day hypoxia (10% O2), n=9): 33.2 ± 1.2 mmHg
- PAP (pulmonary artery pressure) (chronically hypoxic rats [1]; 14-day normoxia, n = 8): 22.2 ± 1 mmHg
- Effect on ratio between right and left ventricular weights (chronically hypoxic rats [2]; [5]): tendency towards a reduction
- Effect on ratio between right heart weight and bodyweight (chronically hypoxic rats [2]; [5]): tendency towards a reduction
- Effect on right heart weight (antihypertrophic effect) in comparison with hypoxic control tests (chronically hypoxic rats [2]; [5]): statistically significant reduction
- Rt/LtHWt (ratio of right to left ventricular weight) (chronically hypoxic rats [2]; 14-day hypoxia (10% O2), n=9): 0.40 ± 0.02 mg/mg
- RtHWt (right ventricular weight) (chronically hypoxic rats [2]; 14-day hypoxia (10% O2), n=9): 242 ± 6.4 mg
- RtHWt/BW (ratio of right ventricular weight to body weight) (chronically hypoxic rats [2]; 14-day hypoxia (10% O2), n=9): 0.87 ± 0.03 mg/g
- Rt/LtHWt (ratio of right to left ventricular weight) (chronically hypoxic rats [2]; 14-day normoxia, n = 8): 0.25 ± 0.01 mg/mg
- RtHWt (right ventricular weight) (chronically hypoxic rats [2]; 14-day normoxia, n = 8): 171 ± 10 mg
- RtHWt/BW (ratio of right ventricular weight to body weight) (chronically hypoxic rats [2]; 14-day normoxia, n = 8): 0.56 ± 0.03 mg/g
- Effect on muscularisation of the distal pulmonary vessels (chronically hypoxic rats [3]; [5]): statistically significantly reduced
- Muscularised distal pulmonary vessels (chronically hypoxic rats [3]; [6]): 52 ± 5 %
- Non-muscularised distal pulmonary vessels (chronically hypoxic rats [3]; [6]): 9 ± 3%
- Partly muscularised distal pulmonary vessels (chronically hypoxic rats [3]; [6]): 39 ± 4 %
- Effect on normal systemic blood pressure (hypotensive properties) (chronically hypoxic rats [4]): unaffected
